Experimental data reported in US7816400B2 (The University of Hong Kong, priority 2007, dated 2010).
“Also recorded” adds a separate entry of the source.

Key:
Assay type in all cases: cell-based
[1] = system: ICa.L; experiment: ICa.L in guinea pig ventricular myocytes; details: 30 and 100 μM
Experimental: (§1) Guinea pigs of either gender (250-300 g) were sacrificed by cervical dislocation after anesthetization with pentobarbital (40 mg kg, i.p.). The procedure related to the use of animals in this invention was approved by the Animal Care and Use Committee for Teaching and Research of University of Hong Kong in accordance with the Guide for the Care and Use of Laboratory Animals (Institute of Laboratory Animal Resources, Commission on Life Sciences, National Research Council, 1996). Left atrial and ventricular myocytes from guinea pig hearts were enzymatically dissociated by the procedure described previously (Li et al., 2002a) and the isolated myocytes were kept in the K^+ storage medium.
The Ca^2+-free cardioplegic solution for specimen transport contained (in mM) 50 KH2PO4, 8 MgSO4, 5 adenosine, 10 HEPES, 140 glucose, 100 mannitol, 10 taurine, pH was adjusted to 7.3 with KOH. Tyrode solution contained (in mM) 140 NaCl, 5.4 KCl, 1 MgCl2, 1 CaCl2, 0.33 NaH2PO4, 10 HEPES, 10 glucose, pH was adjusted to 7.4 with NaOH. […] INa was recorded under conditions of K^+-free and a symmetrical Na^+ (5 mM) in pipette and superfusion solutions as described previously (Li at al., 2002a).
The whole-cell patch-clamp technique was used for electrophysiological recording. […] Membrane currents were recorded in voltage-clamp mode using an EPC-9 amplifier and Pulse software (HEKA, Lambrecht, Germany). […]

[2] = system: human atrial myocytes; experiment: Action potential in human atrial myocytes, perforated patch, current clamp
Text: Atrial cells were isolated from specimens of human right atrial appendage obtained from patients (56.1±4.7 years old) undergoing coronary artery bypass grafting. […] All patients were free from supraventricular tachyarrythmias, and the atria were grossly normal at the time of surgery. After excision, the samples were quickly immersed in oxygenated, normally Ca^2+-free cardioplegic solution for transport to the laboratory. Atrial myocytes were enzymatically dissociated as described previously (Tian et al., 2006; Gao et al., 2004). Briefly, the atrial tissue was minced, and gently agitated by continuous bubbling with 100% O2 in a Ca^2+-free Tyrode solution for 15 min (5 min at a time in fresh solutions), and then incubated for 50 min in a similar solution containing 150-200 U/ml collagenase (CLS II, Worthington Biochemical, Freehold, N.J., USA), 0.2 mg/ml protease (type XXIV, Sigma-Aldrich Chemical, St Louis, Mo., USA.) and 1 mg/ml bovine serum albumin (Sigma-Aldrich). After then, the chunks were re-incubated in a fresh enzyme solution of the same composition but no protease. The quantity and quality of isolated cells were monitored under a microscope. When the cell yield appeared optimal, the chunks were suspended in a high K medium containing (mM) 10 KCl, 120 K-glutamate, 10 KH2PO4, 1.8 MgSO4, 10 taurine, 10 HEPES, 0.5 EGTA, 20 glucose, 10 mannitol, pH was adjusted to 7.3 with KOH and gently blown with a pipette. The isolated myocytes were kept at room temperature in the medium at least 1 h before use.
(§2) A small aliquot of the solution containing the isolated cells was placed in an open perfusion chamber (1-ml) mounted on the stage of an inverted microscope. Myocytes were allowed to adhere to the bottom of the chamber for 5-10 min and were the superfused at 2-3 ml/min with Tyrode solution. Only quiescent rod-shaped cells with clear cross-striations were used. The studies were conducted at room temperature (21-22° C.) for current recording or 36° C. for action potential recording.
The whole-cell patch-clamp technique was used for electrophysiological recording. Borosilicate glass electrodes (1.2-mm OD) were pulled with a Brown-Flamming puller (model P-97, Sutter Instrument Co, Novato, Calif., USA) and had tip resistances of 2-3 MΩ when filled with pipette solution. […] A 3-M KCl-agar salt bridge was used as reference electrode. The tip potentials were compensated before the pipette touched the cell. After a giga-ohm seal was obtained, the cell membrane was ruptured by gentle suction to establish the whole-cell configuration. […] The series resistance (Rs) was 3-5 MΩ and was compensated by 50-70% to minimize voltage errors. Perforated patch configuration was used for recording action potential in human atrial cells and IKs in HEK 293 cells as described previously (Li et al., 2002b; Dong et al., 2006). Current signals were low-pass filtered at 5 kHz and stored on the hard disk of an IBM compatible computer.

[3] = system: IK.ACh; experiment: Carbachol-evoked IK.ACh in guinea pig atrial myocytes; details: for IK.ACh at +50 mV / IK.ACh at −100 mV: carbachol 5 μM; for IK.ACh at +50 mV: control 147.2; for IK.ACh at −100 mV: control −338.3±61.5; for block of carbachol-evoked IK.ACh, in words: 3 and 10 μM
Experimental: as §1
The whole-cell patch-clamp technique was used for electrophysiological recording. Borosilicate glass electrodes (1.2-mm OD) were pulled with a Brown-Flamming puller (model P-97, Sutter Instrument Co, Novato, Calif., USA) and had tip resistances of 2-3 MΩ when filled with pipette solution. Membrane currents were recorded in voltage-clamp mode using an EPC-9 amplifier and Pulse software (HEKA, Lambrecht, Germany). A 3-M KCl-agar salt bridge was used as reference electrode. The tip potentials were compensated before the pipette touched the cell. After a giga-ohm seal was obtained, the cell membrane was ruptured by gentle suction to establish the whole-cell configuration. The cell membrane capacitance (pF) was directly measured using the lock-in module of the Pulse software, and used for normalizing the current in individual cells. The series resistance (Rs) was 3-5 MΩ and was compensated by 50-70% to minimize voltage errors. Perforated patch configuration was used for recording action potential in human atrial cells and IKs in HEK 293 cells as described previously (Li et al., 2002b; Dong et al., 2006). Current signals were low-pass filtered at 5 kHz and stored on the hard disk of an IBM compatible computer.

[4] = biological target: T1, Ito (Homo sapiens, UniProt Q9UK17); experiment: Ito in human atrial myocytes, whole-cell patch clamp; details: for voltage-dependence of steady-state inactivation and activation of Ito, in words: 10 μM
T1 sequence (Q9UK17 1-655): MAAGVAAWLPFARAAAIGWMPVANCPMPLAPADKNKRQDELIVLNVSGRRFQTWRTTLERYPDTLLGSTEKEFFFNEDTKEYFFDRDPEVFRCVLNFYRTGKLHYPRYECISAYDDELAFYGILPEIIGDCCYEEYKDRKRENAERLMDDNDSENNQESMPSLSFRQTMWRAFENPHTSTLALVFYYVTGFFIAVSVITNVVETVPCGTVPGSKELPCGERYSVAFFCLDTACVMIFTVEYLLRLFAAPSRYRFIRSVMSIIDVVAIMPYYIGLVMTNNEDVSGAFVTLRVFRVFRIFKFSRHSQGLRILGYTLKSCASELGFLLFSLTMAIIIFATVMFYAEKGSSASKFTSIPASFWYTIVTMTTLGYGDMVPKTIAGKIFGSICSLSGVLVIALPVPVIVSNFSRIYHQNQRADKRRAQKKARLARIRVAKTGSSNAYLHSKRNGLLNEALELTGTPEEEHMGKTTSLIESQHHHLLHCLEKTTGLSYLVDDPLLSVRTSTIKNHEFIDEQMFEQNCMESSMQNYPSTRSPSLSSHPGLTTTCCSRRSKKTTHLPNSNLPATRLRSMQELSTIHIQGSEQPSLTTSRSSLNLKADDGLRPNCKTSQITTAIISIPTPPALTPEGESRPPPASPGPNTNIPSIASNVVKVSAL
T1 sequence (Q9NS61 1-270 partner): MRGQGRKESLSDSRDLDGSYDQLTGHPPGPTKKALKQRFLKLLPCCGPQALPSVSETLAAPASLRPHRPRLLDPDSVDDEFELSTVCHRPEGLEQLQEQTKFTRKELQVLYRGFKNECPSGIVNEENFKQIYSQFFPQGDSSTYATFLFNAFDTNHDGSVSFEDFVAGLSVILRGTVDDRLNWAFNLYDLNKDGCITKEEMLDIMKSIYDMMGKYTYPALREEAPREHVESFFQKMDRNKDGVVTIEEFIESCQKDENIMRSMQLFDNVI
Experimental: Atrial cells were isolated from specimens of human right atrial appendage obtained from patients (56.1±4.7 years old) undergoing coronary artery bypass grafting. […] After excision, the samples were quickly immersed in oxygenated, normally Ca^2+-free cardioplegic solution for transport to the laboratory. […] Briefly, the atrial tissue was minced, and gently agitated by continuous bubbling with 100% O2 in a Ca^2+-free Tyrode solution for 15 min (5 min at a time in fresh solutions), and then incubated for 50 min in a similar solution containing 150-200 U/ml collagenase (CLS II, Worthington Biochemical, Freehold, N.J., USA), 0.2 mg/ml protease (type XXIV, Sigma-Aldrich Chemical, St Louis, Mo., USA.) and 1 mg/ml bovine serum albumin (Sigma-Aldrich). After then, the chunks were re-incubated in a fresh enzyme solution of the same composition but no protease. The quantity and quality of isolated cells were monitored under a microscope. When the cell yield appeared optimal, the chunks were suspended in a high K medium containing (mM) 10 KCl, 120 K-glutamate, 10 KH2PO4, 1.8 MgSO4, 10 taurine, 10 HEPES, 0.5 EGTA, 20 glucose, 10 mannitol, pH was adjusted to 7.3 with KOH and gently blown with a pipette. The isolated myocytes were kept at room temperature in the medium at least 1 h before use.
The Ca^2+-free cardioplegic solution for specimen transport contained (in mM) 50 KH2PO4, 8 MgSO4, 5 adenosine, 10 HEPES, 140 glucose, 100 mannitol, 10 taurine, pH was adjusted to 7.3 with KOH. Tyrode solution contained (in mM) 140 NaCl, 5.4 KCl, 1 MgCl2, 1 CaCl2, 0.33 NaH2PO4, 10 HEPES, 10 glucose, pH was adjusted to 7.4 with NaOH. The pipette solution contained (in mM) 20 KCl, 110 K-aspartate, 1 MgCl2, 10 HEPES, 5 EGTA, 0.1 GTP, 5 Na2-phosphocreatine, and 5 Mg2-ATP, pH was adjusted to 7.2 with KOH. For Ito and IKur recording, BaCl2 (200 μM) and CdCl2 (200 μM) were added to the superfusion to block IK1 and ICa.L. Atropine (1.0 μM) was used to minimize possible IK.ACh contamination during the current recording. For ICa.L recording, K^+ in pipette and Tyrode solution was replaced by CsCl. INa was recorded under conditions of K^+-free and a symmetrical Na^+ (5 mM) in pipette and superfusion solutions as described previously (Li at al., 2002a).
as §2

Which “effect on ICa.L, in words” value [1] does the source give for `COc1ccc(-c2cc(=O)c3c(O)cc(O)cc3o2)cc1` [Acacetin, 5,7-dihydroxy-4′-methoxyflavone] here?
Its value is “no effect; also recorded: no inhibition”.

What about the “effect on ICa.L, in words” value ([1]; listed as acacetin) of the same compound?
The value was “no effects”.

And the “rate dependence of APD prolongation, in words” value ([2]; 10 μM, 0.5 Hz vs 2 Hz)?
The value was “slight rate-dependent increase; also recorded: slight rate-dependent prolongation”.

And the “action potential duration (APD50, APD75, APD90), in words” value ([2]; 5 and 10 μM, 0.5, 1.0, 2.0 Hz, 36° C.)?
The value was “significantly prolonged”.

And the “resting membrane potential and amplitude of action potential, in words” value ([2]; 5 or 10 μM, 2 Hz)?
Its value is “without affecting”.

And the “IK.ACh at +50 mV” value ([3]; 3 μM, n=5)?
The value was 87.8±36.1 pA.

What about the “IK.ACh at −100 mV” value ([3]; 3 μM, n=5) of the same compound?
Its value is −180.2±36.7 pA.

What about the “IK.ACh at +50 mV” value ([3]; 10 μM, n=6) of the same compound?
Its value is 55.7±26.2 pA.

What about the “IK.ACh at −100 mV” value ([3]; 10 μM, n=6) of the same compound?
The value was −75.6±21.1 pA.

And the “block of carbachol-evoked IK.ACh, in words” value [3]?
Its value is “substantially blocked”.

And the “block of carbachol-evoked IK.ACh, in words” value ([3]; listed as acacetin)?
Its value is “substantially inhibits”.

And the “voltage-dependence of steady-state inactivation and activation of Ito, in words” value [4]?
Its value is “did not affect”.

What about the “voltage-dependence of steady-state inactivation and activation of Ito, in words” value ([4]; listed as acacetin) of the same compound?
Its value is “not affected; also recorded: without affecting”.

What about the “inhibition of voltage-dependent Ito, in words” value ([4]; 3 and 10 μM, with 10 μM verapamil) of the same compound?
The value was “substantially inhibited; also recorded: reduced”.

What about the “effect on Ito in human atrial myocytes, in words” value ([4]; extract fraction / isolated compound, concentration not given) of the same compound?
Its value is “blocking effect”.

What about the IC50 ([4]; human atrial myocytes, +40 mV, IKur blocked with 10 μM verapamil, read-out: IC50 for inhibiting Ito) of the same compound?
The IC50 was 9.2 µM.
